These results are taken from patent publication US4292319A, “Antiphlogistic pharmaceutical compositions and method of use” (Boehringer Ingelheim GmbH, priority 1977, dated 1981).

Each structure is given as a SMILES string. Values joined by “and” are separate entries in the source; they are usually repeats but may differ in a detail not shown here. Equal entries are not always repeated. Where two headings read alike, the source gives them in different places.

For data set [1], the system named is kaolin-induced edema of the rat's hind paw. Put plainly: Test for antiphlogistic effect against the kaolin-induced edema of the rat's hind paw. To be noted: for Thickness of the paw (mean) / ED35: oral, rat; for Thickness of the paw (mean): 5 h after kaolin; for influence on acute anti-exudative (antiphlogistic) effect of non-steroidal antiphlogistics: kaolin-induced edema, simultaneous oral administration; for ED35: Rattus norvegicus, po, 5 h, kaolin edema, read-out: ED35. It counts as in vivo, rat (Chbb:THOM). Here is the method:
(2) Test for antiphlogistic effect against the kaolin-induced edema of the rat's hind paw (tested substances: A, B, C and D)
The test was carried out on male Chbb:THOM-rats with a body weight between 125 and 150 gm. According to HILLEBRECHT [Arzneimittel-Forsch. 4, 607 (1954)], a subplantary injection of 0.05 ml of a 10% suspension of kaolin in an aqueous 0.85% sodium chloride solution in the hind paw was used for the provocation of the kaolin edema. The other hind paw was subplantarily injected with the same volume of an aqueous 0.85% sodium chloride solution.
The measurement of the thickness of the paws was carried out using the technique of DOEPFNER and […] [Int. Arch. Allergy appl. Immunol. 12, 89 (1958)] by way of the determination of the maximum sagittal diameter, using a measuring device with constant pressure, before and 5 hours after the provocation of the edema.
The test substances (the non-steroidal antiphlogistics or the mixture of non-steroidal antiphlogistics with pirenzepine dihydrochloride) were administered 30 minutes before provocation of the edema as a trituration in 1% tylose (1 ml/[…]) by way of an esophageal tube.
The diameter of the paw measured before the beginning of the test as well as the increase in diameter of the other paw caused by injection were subtracted from the diameter of the kaolin-treated paw, and this difference, being the real swelling value, was used for the further calculations.
(§1) From the swelling values obtained by administration of different dosages of non-steroidal antiphlogistics with or without the addition of pirenzepine dihydrochloride, using a linear regression analysis according to LINDNER [Statistische Methoden, 4th Ed., pages 148-162, Birkhauser, Basel, Switzerland (1964)], the ED35 values of the antiphlogistics were calculated with the confidence limits according to FIELLER [Quart. J. Pharm. Pharmacol. 17, 117 (1944)], the ED35 being the dosage which reduces the swelling of the paws by 35% in comparison to the control animals.

Data set [2] has as its system carrageenin-induced edema of the hind paw of the rat. As to the kind of experiment: Test for antiphlogistic effect against the carrageenin-induced edema of the hind paw of the rat. It counts as in vivo. To be noted: for Thickness of the paw (mean): oral, 3 h after carrageenin; for Thickness of the paw (mean) / ED35: rat; for influence on acute anti-exudative (antiphlogistic) effect of non-steroidal antiphlogistics: carrageenin-induced edema, simultaneous oral administration; for ED35: Rattus norvegicus, po, 3 h, carrageenin edema. How it is done: The test was carried out in analogy to the above test for the kaolin-induced edema. However, the edema was induced according to the method of WINTER et al. [J. Pharmacol. 141, 369 (1963)] by subplantary injection of 0.05 ml of a 1% solution of carrageenin in an aqueous 0.85% solution of sodium chloride. […] Three hours after the provocation of the edema the measurement which provided the basis for the evaluation of an anti-exudative effect was carried out.
as §1
A general note: Carrageenan injected into the paw causes an acute inflammation.

The test system of another data set is ulcer. It counts as in vivo. The following applies: pirenzepine dihydrochloride together with indomethacin; several hundred cases, two years.
Another data set relates to gastro-intestinal tract. To be noted: cited from earlier work.
Data set [3] can be described thus: Test for ulcerogenic effect on the stomach of the rat. The data set is classed as in vivo, rat (Chbb:THOM). The following applies: in vivo, po, ED50-ulcer. How it is done:
(§2) (1) Test for ulcerogenic effect on the stomach of the rat
(§3) The test was carried out on male and female (1:1) Chbb:THOM-rats with a body weight between 130 to 150 gm at the beginning of the study.
(§4) The test substances (non-steroidal anti-phlogistics or mixtures of these antiphlogistics with pirenzepine dihydrochloride) were administered as triturations in 1% tylose (1 ml/100 gm animal) by way of an esophageal tube once a day on three successive days.
(§5) Four hours after the last administration (i.e. on the 3rd day) the animals were killed by an over-dose of ether. The stomachs wer dissected, cut along the great curvature and washed under flowing water for subsequent macroscopic evaluation.

The subject of another data set is stomach of the rat. The description is as above. It counts as in vivo, rat (Chbb:THOM). To be noted: oral, 3 subsequent days. How it is done: as §2, §3, §4, §5
Where [4] appears, read: listed as pirenzepine dihydrochloride, dihydrochloride.
[5] abbreviates: antiphlogistic 50 mgm/kg + A 100 mgm/kg.
Where [6] appears, read: antiphlogistic 50 mgm/kg, without A.
Setting [7] is: antiphlogistic 25 mgm/kg + A 100 mgm/kg.
The mark [8] stands for this setting: antiphlogistic 25 mgm/kg, without A.
[9] abbreviates: antiphlogistic 25 mgm/kg + A 400 mgm/kg.
Where [10] appears, read: antiphlogistic 50 mgm/kg + A 400 mgm/kg.
Where [11] appears, read: antiphlogistic 100 mgm/kg + A 400 mgm/kg.
Setting [12] is: antiphlogistic 100 mgm/kg, without A.
Setting [13] is: antiphlogistic 200 mgm/kg + A 400 mgm/kg.
Setting [14] is: antiphlogistic 200 mgm/kg, without A.

As for `CN1CCN(CC(=O)N2c3ccccc3C(=O)Nc3cccnc32)CC1.Cl.Cl` [A, 5,11-dihydro-11-[(4-methyl-1-piperazinyl)-acetyl]-6H-pyrido[2,3-b] [1,4] benzodiazepin-6-one dihydrochloride], the “Thickness of the paw (mean)” value in data set [1] (Controls with A 100 mgm/kg, no antiphlogistic, dihydrochloride) was 277.5 10^-2 mm and 276.3 10^-2 mm and 278.0 10^-2 mm; in data set [2] (Controls with A 400 mgm/kg, no antiphlogistic, dihydrochloride), 272.0 10^-2 mm and 271.0 10^-2 mm. Also, the “influence on acute anti-exudative (antiphlogistic) effect of non-steroidal antiphlogistics” value in data set [1] (dihydrochloride) is given as “not reduced”; in data set [1] (setting [4]), “does not lead to a reduction of the acute anti-exudative effect”; in data set [2] (dihydrochloride), “not reduced”; in data set [2] (setting [4]), “does not lead to a reduction of the acute anti-exudative effect”. The ulcer rate with ulcer is around 0%.

As for `CCCC1C(=O)N2C(N(C)C)=Nc3ccc(C)cc3N2C1=O` (centres unmarked) [azapropazone, 5-dimethylamino-9-methyl-2-propyl-1H-pyrazolo[1,2-a][1,2,4]benzotriazine-1,3(2H)-dione], the “gastro-intestinal incompatabilities encountered, share of all cases” value with gastro-intestinal tract (clinical, depending upon experience, patients and compound primarily used) was 25-37%.

In data set [3], `OCCCCc1ccc(-c2ccccc2)cc1` [D, 4-(4-biphenylyl)-butanol] gave a TD50 of 44.5 mg/kg. The “Ratio of animals with ulcers” value with stomach of the rat (antiphlogistic 28.1 mgm/kg, without A) is listed as 4/17; with stomach of the rat (antiphlogistic 37.5 mgm/kg, without A), 5/17; in the data set on stomach of the rat (antiphlogistic 50.0 mgm/kg + A 50 mgm/kg), 1/16; in the data set on stomach of the rat (setting [5]) it was 2/16; with stomach of the rat (setting [6]) it was 9/17; in the data set on stomach of the rat (antiphlogistic 67.5 mgm/kg + A 50 mgm/kg), 6/16. Moreover, the “Ratio of animals with ulcers” value with stomach of the rat (antiphlogistic 67.5 mgm/kg + A 100 mgm/kg) is 5/15; with stomach of the rat (antiphlogistic 67.5 mgm/kg, without A) it was 15/17; in the data set with stomach of the rat (antiphlogistic 91.1 mgm/kg + A 50 mgm/kg) it was 11/14; in the data set on stomach of the rat (antiphlogistic 91.1 mgm/kg + A 100 mgm/kg), 7/15; with stomach of the rat (antiphlogistic 123.0 mgm/kg + A 50 mgm/kg), 13/14; in the data set with stomach of the rat (antiphlogistic 123.0 mgm/kg + A 100 mgm/kg), 10/13. Further, the ED35 worked out at 12.1 mg/kg in data set [1] (with A 100 mgm/kg) and 11.2 mg/kg in data set [1] (without A). Besides, the “Thickness of the paw (mean)” value was 215.5 10^-2 mm in data set [1] (antiphlogistic 6.25 mgm/kg + A 100 mgm/kg); 214.3 10^-2 mm in data set [1] (antiphlogistic 6.25 mgm/kg, without A); 180.4 10^-2 mm in data set [1] (antiphlogistic 12 mgm/kg + A 100 mgm/kg); 165.0 10^-2 mm in data set [1] (antiphlogistic 12 mgm/kg, without A); 141.0 10^-2 mm in data set [1] (setting [7]); 124.0 10^-2 mm in data set [1] (setting [8]).

`CC(C)Cc1ccc(C(C)C(=O)O)cc1` (centres unmarked) [H, 2-(4-isobutylphenyl)-propionic acid] came in with a TD50 in data set [3] of 31 mg/kg. The “Ratio of animals with ulcers” value is recorded as 0/20 with stomach of the rat (antiphlogistic 12.5 mgm/kg, without A); 6/20 in the data set on stomach of the rat (setting [7]); 1/20 in the data set on stomach of the rat (setting [9]); 8/20 in the data set on stomach of the rat (setting [8]); 11/20 with stomach of the rat (setting [5]); 11/20 in the data set with stomach of the rat (setting [10]). Also, the “Ratio of animals with ulcers” value in the data set on stomach of the rat (setting [6]) is listed as 15/20; with stomach of the rat (antiphlogistic 100 mgm/kg + A 100 mgm/kg), 18/20; in the data set on stomach of the rat (setting [11]), 16/20; in the data set with stomach of the rat (setting [12]), 19/20; in the data set on stomach of the rat (antiphlogistic 200 mgm/kg + A 100 mgm/kg) it was 20/20; with stomach of the rat (setting [13]), 19/20. For the same compound, in the data set with stomach of the rat (setting [14]), the “Ratio of animals with ulcers” value is 20/20. The ED35 was found to be 34.2 mg/kg in data set [2] (with A 400 mgm/kg) and 39.6 mg/kg in data set [2] (without A). Also, the “Thickness of the paw (mean)” value in data set [2] (antiphlogistic 20 mgm/kg + A 400 mgm/kg) is given as 204.0 10^-2 mm; in data set [2] (antiphlogistic 20 mgm/kg, without A), 210.0 10^-2 mm; in data set [2] (antiphlogistic 40 mgm/kg + A 400 mgm/kg), 170.0 10^-2 mm; in data set [2] (antiphlogistic 40 mgm/kg, without A) it was 167.0 10^-2 mm; in data set [2] (antiphlogistic 80 mgm/kg + A 400 mgm/kg), 131.7 10^-2 mm; in data set [2] (antiphlogistic 80 mgm/kg, without A) it was 141.5 10^-2 mm.

In the case of `CCCCC1C(=O)N(c2ccccc2)N(c2ccccc2)C1=O` [G, 4-butyl-1,2-diphenyl-3,5-pyrazolidinedione], the TD50 in data set [3] turned out to be 69 mg/kg. Further, the “Ratio of animals with ulcers” value in the data set on stomach of the rat (antiphlogistic 50 mgm/kg + A 200 mgm/kg) is recorded as 2/20; with stomach of the rat (setting [10]) it was 0/20; in the data set with stomach of the rat (setting [6]) it was 4/20; in the data set with stomach of the rat (antiphlogistic 71 mgm/kg + A 200 mgm/kg), 8/20; in the data set on stomach of the rat (antiphlogistic 71 mgm/kg + A 400 mgm/kg), 0/20; with stomach of the rat (antiphlogistic 100 mgm/kg + A 200 mgm/kg), 15/20. In addition, the “Ratio of animals with ulcers” value in the data set with stomach of the rat (setting [11]) is listed as 6/20; with stomach of the rat (setting [12]) it was 14/20; with stomach of the rat (antiphlogistic 200 mgm/kg + A 200 mgm/kg), 20/20; in the data set on stomach of the rat (setting [13]), 14/20; with stomach of the rat (setting [14]), 20/20; in the data set with stomach of the rat (antiphlogistic 400 mgm/kg + A 400 mgm/kg), 18/19. Besides, the ED35 amounted to 45.7 mg/kg in data set [2] (with A 400 mgm/kg) and 51.7 mg/kg in data set [2] (without A). The “Thickness of the paw (mean)” value is listed as 205.0 10^-2 mm in data set [2] (setting [9]); 216.8 10^-2 mm in data set [2] (setting [8]); 173.5 10^-2 mm in data set [2] (setting [10]); 175.8 10^-2 mm in data set [2] (setting [6]); 138.9 10^-2 mm in data set [2] (setting [11]); 153.8 10^-2 mm in data set [2] (setting [12]). In data set [2] (setting [14]), the “Thickness of the paw (mean)” value is 125.0 10^-2 mm. In the data set on gastro-intestinal tract (human, in vivo), the “gastro-intestinal incompatabilities encountered, share of all cases” value is 25-37%.
